Measured values from ChEMBL document CHEMBL3763120, “Phenyl Benzenesulfonylhydrazides Exhibit Selective Indoleamine 2,3-Dioxygenase Inhibition with Potent in Vivo Pharmacodynamic Activity and Antitumor Efficacy” (J Med Chem, 2016).

Key:
Homo sapiens [1] = species: Homo sapiens; test: Inhibition of Sodium channel site 2 (unknown origin) at 10 uM
CT26 [2] = test: Antitumor activity against mouse CT26 cells xenografted in Balb/c mouse assessed as tumor growth delay at 100 mg/kg, po bid for 22 days; type: functional; details: 528 h, read-out: TGI
[3] = target: Beta-1 adrenergic receptor (Homo sapiens) (UniProt P08588); test: Inhibition of Adrenergic beta1 receptor (unknown origin) at 10 uM
[4] = target: Histamine H1 receptor (Homo sapiens) (UniProt P35367); test: Inhibition of Histamine H1 receptor (unknown origin) at 10 uM
Homo sapiens [5] = species: Homo sapiens; test: Inhibition of MT1 receptor (unknown origin) at 10 uM
[6] = target: Neuropeptide Y receptor type 1 (Homo sapiens) (UniProt P25929); test: Inhibition of Neuropeptide Y1 receptor (unknown origin) at 10 uM
Homo sapiens [7] = species: Homo sapiens; test: Inhibition of potassium channel (unknown origin) at 10 uM
CT26 [8] = test: Antitumor activity against mouse CT26 cells xenografted in Balb/c mouse assessed as reduction in tumor weight at 100 mg/kg bid for 18 days administered via oral gavage; type: functional; details: 432 h
[9] = target: Muscarinic acetylcholine receptor M2 (Homo sapiens) (UniProt P08172); test: Inhibition of Muscarinic M2 receptor (unknown origin) at 10 uM
[10] = Plasma concentration in C57BL/6 mouse at 50 mg/kg, po after 5 hrs by LC-MS/MS analysis; type: ADME, organism-based
CT26 [11] = test: Antitumor activity against mouse CT26 cells xenografted in Balb/c mouse assessed as median time to end point at 100 mg/kg, po bid for 22 days; type: functional
[12] = target: Adenosine receptor A1 (Homo sapiens) (UniProt P30542); test: Inhibition of Adenosine A1 receptor (unknown origin) at 10 uM
[13] = target: Kappa-type opioid receptor (Homo sapiens) (UniProt P41145); test: Inhibition of Opiate kappa receptor (unknown origin) at 10 uM
Homo sapiens [14] = species: Homo sapiens; test: Inhibition of GABAA receptor central flunitrazepam site (unknown origin) at 10 uM
Mus musculus [15] = test: Decrease in ratio of kynurenine to tryptophan in Balb/c mouse tumor xenografted with CT26 cells at 100 mg/kg bid for 18 days administered via oral gavage after 6 hrs by LC-MS/MS analysis; type: functional
[16] = target: Epidermal growth factor receptor (Homo sapiens) (UniProt P00533); test: Inhibition of EGF receptor (unknown origin) at 10 uM
[17] = target: Indoleamine 2,3-dioxygenase 1 (Homo sapiens, UniProt P14902); test: Inhibition of human Indoleamine 2,3-dioxygenase using L-tryptophan as substrate by emission fluorescence analysis
hERG (KCNH2) = hERG (KCNH2) (Homo sapiens, UniProt Q12809); test: Inhibition of human ERG at 10 uM
Homo sapiens [18] = species: Homo sapiens; test: Inhibition of GABAA receptor central muscimol site (unknown origin) at 10 uM
[19] = target: Estrogen receptor (Homo sapiens) (UniProt P03372); test: Inhibition of ERalpha (unknown origin) at 10 uM
[20] = target: Muscarinic acetylcholine receptor M3 (Homo sapiens) (UniProt P20309); test: Inhibition of Muscarinic M3 receptor (unknown origin) at 10 uM
CT26 [21] = test: Antitumor activity against mouse CT26 cells xenografted in Balb/c mouse assessed as median time to end point at 200 mg/kg, po bid for 22 days; type: functional
[22] = target: Mu-type opioid receptor (Homo sapiens) (UniProt P35372); test: Inhibition of Opiate mu receptor (unknown origin) at 10 uM
[23] = target: Sodium-dependent serotonin transporter (Homo sapiens) (UniProt P31645); test: Inhibition of Serotonin transporter (unknown origin) at 10 uM
[24] = target: Thyroid hormone receptor (Homo sapiens) (UniProt P10827+P10828); test: Inhibition of Thyroid hormone receptor (unknown origin) at 10 uM; type: protein-complex assay
[25] = target: Delta-type opioid receptor (Homo sapiens) (UniProt P41143); test: Inhibition of Opiate delta1 receptor (unknown origin) at 10 uM
Homo sapiens [26] = species: Homo sapiens; test: Inhibition of Purinergic P2X receptor (unknown origin) at 10 uM
[27] = target: Adenosine receptor A3 (Homo sapiens) (UniProt P0DMS8); test: Inhibition of Adenosine A3 receptor (unknown origin) at 10 uM
[28] = target: L-type calcium channel, dihydropyridine binding site (Homo sapiens, UniProt O60840+Q01668+Q13698+Q13936); test: Inhibition of L-type calcium channel dihydropyridine binding site (unknown origin) at 10 uM; type: protein assay
Mus musculus [29] = test: Decrease in ratio of kynurenine to tryptophan in Balb/c mouse tumor xenografted with CT26 cells at 100 mg/kg bid for 18 days administered via oral gavage after 2 hrs by LC-MS/MS analysis; type: functional
[30] = target: Androgen receptor (Homo sapiens) (UniProt P10275); test: Inhibition of Androgen receptor (unknown origin) at 10 uM
[31] = target: Glucocorticoid receptor (Homo sapiens) (UniProt P04150); test: Inhibition of Glucocorticoid receptor (unknown origin) at 10 uM
Homo sapiens [32] = species: Homo sapiens; test: Inhibition of rolipram binding site (unknown origin) at 10 uM
Mus musculus [33] = test: Decrease in ratio of kynurenine to tryptophan in C57BL/6 mouse at 50 mg/kg, po after 2 hrs by LC-MS/MS analysis; type: functional; details: C57BL/6, po
[34] = target: L-type calcium channel, benzothiazepine binding site (Homo sapiens, UniProt O60840+Q01668+Q13698+Q13936); test: Inhibition of L-type calcium channel benzothiazepine binding site (unknown origin) at 10 uM; type: protein assay
[35] = target: Glutamate [NMDA] receptor (Homo sapiens) (UniProt Q05586+Q12879+Q13224+O15399+O60391+Q14957+Q8TCU5); test: Inhibition of NMDA receptor glycine binding site (unknown origin) at 10 uM
CT26 [36] = test: Antitumor activity against mouse CT26 cells xenografted in Balb/c mouse assessed as tumor growth delay at 400 mg/kg, po bid for 22 days; type: functional; details: 528 h, read-out: TGI
CT26 [37] = test: Antitumor activity against mouse CT26 cells xenografted in Balb/c mouse assessed as median time to end point at 400 mg/kg, po bid for 22 days; type: functional
[38] = target: D(1A) dopamine receptor (Homo sapiens) (UniProt P21728); test: Inhibition of Dopamine D1 receptor (unknown origin) at 10 uM
Homo sapiens [39] = species: Homo sapiens; test: Inhibition of D4.2 receptor (unknown origin) at 10 uM
Homo sapiens [40] = species: Homo sapiens; test: Inhibition of I2 imidazoline binding site (unknown origin) at 10 uM
[41] = target: B1 bradykinin receptor (Homo sapiens) (UniProt P46663); test: Inhibition of Bradykinin B1 receptor (unknown origin) at 10 uM
[42] = Tmax in Sprague-Dawley rat plasma at 10 mg/kg, po by LC-MS/MS analysis; type: ADME, organism-based
[43] = target: D(3) dopamine receptor (Homo sapiens) (UniProt P35462); test: Inhibition of Dopamine D3 receptor (unknown origin) at 10 uM
[44] = Plasma concentration in C57BL/6 mouse at 50 mg/kg, po after 2 hrs by LC-MS/MS analysis; type: ADME, organism-based

Sequence of Estrogen receptor (Homo sapiens) (P03372 whole entry): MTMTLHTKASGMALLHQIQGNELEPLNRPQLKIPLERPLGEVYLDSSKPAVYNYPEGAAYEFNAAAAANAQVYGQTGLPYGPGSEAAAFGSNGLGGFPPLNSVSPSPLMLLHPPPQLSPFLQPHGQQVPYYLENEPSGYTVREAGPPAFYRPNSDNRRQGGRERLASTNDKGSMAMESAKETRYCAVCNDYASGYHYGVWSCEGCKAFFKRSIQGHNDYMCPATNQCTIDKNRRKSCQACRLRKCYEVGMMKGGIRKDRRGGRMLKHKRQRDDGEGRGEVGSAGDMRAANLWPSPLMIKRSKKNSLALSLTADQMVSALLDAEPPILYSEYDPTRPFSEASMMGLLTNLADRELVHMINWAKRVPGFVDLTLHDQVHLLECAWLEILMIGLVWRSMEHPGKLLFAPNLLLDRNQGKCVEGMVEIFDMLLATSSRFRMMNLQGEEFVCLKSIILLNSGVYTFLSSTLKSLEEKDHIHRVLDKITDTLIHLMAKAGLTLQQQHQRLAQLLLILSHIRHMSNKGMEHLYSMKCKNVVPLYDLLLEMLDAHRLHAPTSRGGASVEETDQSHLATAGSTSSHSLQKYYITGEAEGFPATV
Sequence of Glucocorticoid receptor (Homo sapiens) (P04150 whole entry): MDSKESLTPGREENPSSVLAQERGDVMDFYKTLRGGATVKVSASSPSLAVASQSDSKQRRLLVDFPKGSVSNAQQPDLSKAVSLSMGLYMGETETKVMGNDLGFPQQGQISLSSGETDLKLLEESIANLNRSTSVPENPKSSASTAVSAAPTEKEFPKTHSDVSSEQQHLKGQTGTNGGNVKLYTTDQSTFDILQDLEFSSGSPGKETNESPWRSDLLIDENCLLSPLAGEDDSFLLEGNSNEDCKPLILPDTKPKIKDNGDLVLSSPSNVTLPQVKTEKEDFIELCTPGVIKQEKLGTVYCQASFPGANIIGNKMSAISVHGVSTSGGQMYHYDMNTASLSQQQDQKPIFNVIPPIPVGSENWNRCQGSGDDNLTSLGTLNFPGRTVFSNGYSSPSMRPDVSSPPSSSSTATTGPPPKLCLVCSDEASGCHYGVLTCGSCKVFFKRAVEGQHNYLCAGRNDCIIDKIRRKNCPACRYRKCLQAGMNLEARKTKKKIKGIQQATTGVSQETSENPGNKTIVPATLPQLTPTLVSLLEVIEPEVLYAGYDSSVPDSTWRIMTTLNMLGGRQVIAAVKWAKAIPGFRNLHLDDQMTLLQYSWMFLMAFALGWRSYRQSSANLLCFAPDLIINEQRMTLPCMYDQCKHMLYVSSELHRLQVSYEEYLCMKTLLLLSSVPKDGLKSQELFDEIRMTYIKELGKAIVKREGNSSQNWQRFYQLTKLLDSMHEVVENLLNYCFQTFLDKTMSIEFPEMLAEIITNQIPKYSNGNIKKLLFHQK
Sequence of D(1A) dopamine receptor (Homo sapiens) (P21728 whole entry): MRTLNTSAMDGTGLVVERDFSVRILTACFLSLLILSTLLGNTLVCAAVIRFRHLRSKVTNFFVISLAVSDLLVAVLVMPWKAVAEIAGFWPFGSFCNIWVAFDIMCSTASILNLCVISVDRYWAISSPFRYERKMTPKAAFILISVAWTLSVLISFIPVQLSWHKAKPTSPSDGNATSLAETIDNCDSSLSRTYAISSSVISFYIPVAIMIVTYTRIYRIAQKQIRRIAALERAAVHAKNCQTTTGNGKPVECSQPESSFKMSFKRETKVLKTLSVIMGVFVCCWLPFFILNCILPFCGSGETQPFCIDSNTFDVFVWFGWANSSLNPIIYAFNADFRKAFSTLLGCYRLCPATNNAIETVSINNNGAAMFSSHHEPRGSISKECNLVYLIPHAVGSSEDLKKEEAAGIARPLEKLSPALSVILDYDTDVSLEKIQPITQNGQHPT
Sequence of B1 bradykinin receptor (Homo sapiens) (P46663 whole entry): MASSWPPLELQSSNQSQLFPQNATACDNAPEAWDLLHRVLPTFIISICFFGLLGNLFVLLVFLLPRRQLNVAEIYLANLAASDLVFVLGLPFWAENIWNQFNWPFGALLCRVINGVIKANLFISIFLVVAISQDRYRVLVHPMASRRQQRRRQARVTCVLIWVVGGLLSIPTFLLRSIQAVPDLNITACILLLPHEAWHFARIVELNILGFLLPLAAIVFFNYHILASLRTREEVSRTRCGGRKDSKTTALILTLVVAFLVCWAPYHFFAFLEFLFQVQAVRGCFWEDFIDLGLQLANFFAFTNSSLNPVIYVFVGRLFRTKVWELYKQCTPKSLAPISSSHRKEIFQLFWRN
Sequence of Epidermal growth factor receptor (Homo sapiens) (P00533 whole entry): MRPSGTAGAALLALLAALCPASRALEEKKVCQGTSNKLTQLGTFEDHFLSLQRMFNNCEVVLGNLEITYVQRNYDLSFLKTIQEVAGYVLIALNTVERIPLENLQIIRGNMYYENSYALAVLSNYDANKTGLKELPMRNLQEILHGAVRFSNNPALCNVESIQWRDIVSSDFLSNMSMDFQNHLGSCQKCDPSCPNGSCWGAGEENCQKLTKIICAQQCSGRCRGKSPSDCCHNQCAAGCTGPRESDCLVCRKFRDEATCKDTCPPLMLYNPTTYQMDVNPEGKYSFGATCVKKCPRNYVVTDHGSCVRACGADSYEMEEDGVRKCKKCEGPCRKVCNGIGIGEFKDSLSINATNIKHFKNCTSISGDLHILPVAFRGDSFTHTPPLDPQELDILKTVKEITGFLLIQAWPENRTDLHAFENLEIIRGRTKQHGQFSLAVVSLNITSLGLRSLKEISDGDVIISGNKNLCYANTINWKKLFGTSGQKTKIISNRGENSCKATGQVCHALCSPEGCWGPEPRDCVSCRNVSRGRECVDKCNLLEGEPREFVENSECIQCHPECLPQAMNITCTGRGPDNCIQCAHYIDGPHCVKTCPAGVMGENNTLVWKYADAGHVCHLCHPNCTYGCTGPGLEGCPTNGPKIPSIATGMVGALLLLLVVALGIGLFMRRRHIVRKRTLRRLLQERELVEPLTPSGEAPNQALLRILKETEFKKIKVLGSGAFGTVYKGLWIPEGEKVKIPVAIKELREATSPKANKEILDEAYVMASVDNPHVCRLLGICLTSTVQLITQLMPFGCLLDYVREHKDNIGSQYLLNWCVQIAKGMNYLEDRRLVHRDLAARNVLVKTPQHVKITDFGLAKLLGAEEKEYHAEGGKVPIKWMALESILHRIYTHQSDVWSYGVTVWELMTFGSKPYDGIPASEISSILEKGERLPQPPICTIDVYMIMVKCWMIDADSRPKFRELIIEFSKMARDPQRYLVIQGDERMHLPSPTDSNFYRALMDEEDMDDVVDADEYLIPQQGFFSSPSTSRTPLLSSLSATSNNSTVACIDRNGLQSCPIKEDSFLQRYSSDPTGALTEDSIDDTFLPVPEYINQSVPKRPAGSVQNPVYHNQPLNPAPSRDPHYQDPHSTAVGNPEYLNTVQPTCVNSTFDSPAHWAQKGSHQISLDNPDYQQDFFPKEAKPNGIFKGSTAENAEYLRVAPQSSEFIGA
Sequence of Delta-type opioid receptor (Homo sapiens) (P41143 whole entry): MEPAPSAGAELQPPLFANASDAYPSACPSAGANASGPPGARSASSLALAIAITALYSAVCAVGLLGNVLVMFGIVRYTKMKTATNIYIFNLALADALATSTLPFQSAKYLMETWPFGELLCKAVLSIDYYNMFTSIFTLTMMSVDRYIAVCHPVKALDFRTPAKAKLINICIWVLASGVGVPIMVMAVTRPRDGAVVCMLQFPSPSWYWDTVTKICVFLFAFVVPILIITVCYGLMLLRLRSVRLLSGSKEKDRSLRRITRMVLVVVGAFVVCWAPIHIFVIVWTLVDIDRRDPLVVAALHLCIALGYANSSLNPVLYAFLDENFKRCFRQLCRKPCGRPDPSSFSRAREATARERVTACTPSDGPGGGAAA
Sequence of Adenosine receptor A3 (Homo sapiens) (P0DMS8 whole entry): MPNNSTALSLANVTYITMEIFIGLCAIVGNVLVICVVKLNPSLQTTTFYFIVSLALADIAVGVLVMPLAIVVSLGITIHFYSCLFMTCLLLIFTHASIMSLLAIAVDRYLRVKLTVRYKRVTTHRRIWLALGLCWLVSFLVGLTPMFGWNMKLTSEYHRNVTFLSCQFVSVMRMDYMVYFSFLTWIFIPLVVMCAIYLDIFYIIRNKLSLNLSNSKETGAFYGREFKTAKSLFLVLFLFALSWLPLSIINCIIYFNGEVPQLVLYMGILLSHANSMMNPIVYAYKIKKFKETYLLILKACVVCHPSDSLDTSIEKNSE
Sequence of Histamine H1 receptor (Homo sapiens) (P35367 whole entry): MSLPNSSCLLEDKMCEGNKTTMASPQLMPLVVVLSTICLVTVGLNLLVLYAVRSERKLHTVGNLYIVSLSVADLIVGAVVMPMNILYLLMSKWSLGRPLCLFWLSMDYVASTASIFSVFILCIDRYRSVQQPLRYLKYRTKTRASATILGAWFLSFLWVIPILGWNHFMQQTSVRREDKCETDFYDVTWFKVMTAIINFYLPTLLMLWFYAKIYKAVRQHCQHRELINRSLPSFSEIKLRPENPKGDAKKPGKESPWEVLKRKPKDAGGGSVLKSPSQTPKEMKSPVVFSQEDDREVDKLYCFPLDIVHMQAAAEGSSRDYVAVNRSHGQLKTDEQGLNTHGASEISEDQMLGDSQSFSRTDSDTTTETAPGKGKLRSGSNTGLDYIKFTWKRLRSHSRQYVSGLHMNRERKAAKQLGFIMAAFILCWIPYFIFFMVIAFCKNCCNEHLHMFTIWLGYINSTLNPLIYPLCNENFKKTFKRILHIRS
Sequence of Neuropeptide Y receptor type 1 (Homo sapiens) (P25929 whole entry): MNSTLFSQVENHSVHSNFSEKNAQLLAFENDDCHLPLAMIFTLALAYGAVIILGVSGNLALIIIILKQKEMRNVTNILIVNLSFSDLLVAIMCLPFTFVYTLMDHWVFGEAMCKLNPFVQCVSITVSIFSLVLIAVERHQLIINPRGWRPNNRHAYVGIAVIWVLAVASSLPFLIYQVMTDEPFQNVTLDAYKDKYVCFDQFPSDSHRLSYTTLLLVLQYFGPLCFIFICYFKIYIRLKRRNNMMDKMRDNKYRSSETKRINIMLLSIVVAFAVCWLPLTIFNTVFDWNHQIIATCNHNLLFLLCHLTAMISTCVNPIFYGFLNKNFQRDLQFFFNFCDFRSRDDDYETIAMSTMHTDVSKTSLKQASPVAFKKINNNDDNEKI

Which inhibition (Homo sapiens [1]) does the source give for `O=C1Cc2cc(S(=O)(=O)NNc3ccc(Br)cc3)ccc2N1` here?
The inhibition was under 50%.

And the inhibition in vivo at 100 mg/kg (CT26 [2])?
Its inhibition in vivo at 100 mg/kg is 40%.

What about the inhibition [3] of the same molecule?
Its inhibition is under 50%.

What about the inhibition [4] of the same molecule?
Its inhibition is under 50%.

What about the inhibition (Homo sapiens [5]) of the same molecule?
Its inhibition is under 50%.

What about the inhibition [6] of the same molecule?
Its inhibition is under 50%.

What about the inhibition (Homo sapiens [7]) of the same molecule?
Its inhibition is under 50%.

What about the inhibition in vivo at 100 mg/kg (CT26 [8]) of the same molecule?
The inhibition in vivo at 100 mg/kg was 64%.

And the inhibition [9]?
Its inhibition is under 50%.

And the concentration at 5 h [10]?
The concentration at 5 h was 2.2 µM.

And the Time (CT26 [11])?
Its Time is 4 days.

And the inhibition [12]?
Its inhibition is under 50%.

What about the inhibition [13] of the same molecule?
The inhibition was under 50%.

What about the inhibition (Homo sapiens [14]) of the same molecule?
Its inhibition is under 50%.

What about the inhibition in vivo at 100 mg/kg (Mus musculus [15]) of the same molecule?
Its inhibition in vivo at 100 mg/kg is 83%.

What about the inhibition [16] of the same molecule?
The inhibition was under 50%.

What about the IC50 [17] of the same molecule?
Its IC50 is 35.8 nM.

And the inhibition at 10 µM (hERG (KCNH2))?
The inhibition at 10 µM was under 50%.

What about the inhibition (Homo sapiens [18]) of the same molecule?
Its inhibition is under 50%.

What about the inhibition [19] of the same molecule?
Its inhibition is under 50%.

What about the inhibition [20] of the same molecule?
Its inhibition is under 50%.

What about the Time (CT26 [21]) of the same molecule?
The Time was 6.4 days.

And the inhibition [22]?
The inhibition was under 50%.

And the inhibition [23]?
The inhibition was under 50%.

What about the inhibition [24] of the same molecule?
The inhibition was under 50%.

And the inhibition [25]?
The inhibition was under 50%.

What about the inhibition (Homo sapiens [26]) of the same molecule?
The inhibition was under 50%.

And the inhibition [27]?
Its inhibition is under 50%.

And the inhibition at 10 µM [28]?
Its inhibition at 10 µM is under 50%.

And the inhibition in vivo at 100 mg/kg (Mus musculus [29])?
The inhibition in vivo at 100 mg/kg was 58%.

And the inhibition [30]?
The inhibition was under 50%.

What about the inhibition [31] of the same molecule?
Its inhibition is under 50%.

What about the inhibition (Homo sapiens [32]) of the same molecule?
The inhibition was under 50%.

And the inhibition in vivo at 50 mg/kg (Mus musculus [33])?
The inhibition in vivo at 50 mg/kg was 31%.

What about the inhibition at 10 µM [34] of the same molecule?
Its inhibition at 10 µM is under 50%.

And the inhibition [35]?
Its inhibition is under 50%.

What about the inhibition in vivo at 400 mg/kg (CT26 [36]) of the same molecule?
Its inhibition in vivo at 400 mg/kg is 73%.

What about the Time (CT26 [37]) of the same molecule?
Its Time is 7.4 days.

And the inhibition [38]?
The inhibition was under 50%.

What about the inhibition (Homo sapiens [39]) of the same molecule?
Its inhibition is under 50%.

And the inhibition (Homo sapiens [40])?
Its inhibition is under 50%.

What about the inhibition [41] of the same molecule?
The inhibition was under 50%.

What about the Tmax [42] of the same molecule?
Its Tmax is 48 min.

And the inhibition [43]?
The inhibition was under 50%.

What about the concentration at 2 h [44] of the same molecule?
The concentration at 2 h was 4 µM.
